Earlier results, collected in PMC7904743, “WIDOCK: a reactive docking protocol for virtual screening of covalent inhibitors” (Journal of Computer-Aided Molecular Design, 2021).
Where two headings read alike, the source gives them in different places.

What was measured:
OTUB2 = details: experimental actives if % labeling higher than 50%, cited from earlier work
NUDT7 = details: protein labeling at 200 μM; experimental actives if % labeling higher than 50%; cited from earlier work
[1] = thiol reactivity, cited from earlier work
[2] = natural log of average rate constant k
[3] = natural logarithm of average rate constant
[4] = natural log of average kinetic rate constant
[5] = natural log of average rate constant

SMILES	OTUB2 % labeling (OTUB2)	NUDT7 % labeling (NUDT7)	ln(avg k) [1, 2]	ln(avg k) [1, 3]	OTUB2 % labeling (OTUB2; OTUB2 protein labeling)	ln(avg k) [1, 4]	ln(avg k) [1, 5]
Cc1c(C#N)c(NC(=O)CCl)n(-c2ccc(F)cc2)c1C [PCM-0102099, Cc1c(C#N)c(NC(=O)CCl)n(-c2ccc(F)cc2)c1C]	0%	17%	-15.940	-15.940	–	–	–
Cc1ccc(C)c(-n2nc(C)cc2NC(=O)CCl)c1 [PCM-0102249, Cc1ccc(C)c(-n2nc(C)cc2NC(=O)CCl)c1]	43%	0%	-15.689	-15.689	–	–	–
Cc1ccc(C2=NN(C(=O)CCl)C(c3ccco3)C2)o1 (stereo not shown) [PCM-0102102, Cc1ccc(C2=NN(C(=O)CCl)C(c3ccco3)C2)o1]	0%	20%	-14.412	-14.412	–	–	–
Cc1ccc(NC(=O)CCl)cc1Br [PCM-0102955, Cc1ccc(NC(=O)CCl)cc1Br]	–	27%	–	–	14%	-16.336	-16.336
Cc1ccc(NC(=O)CCl)cc1Cl [PCM-0102208, Cc1ccc(NC(=O)CCl)cc1Cl]	46%	19%	-15.859	-15.859	–	–	–
Cc1ccc(NC(=O)NC(=O)CCl)cc1C [PCM-0102119, Cc1ccc(NC(=O)NC(=O)CCl)cc1C]	0%	9%	-16.034	-16.034	–	–	–
CN(Cc1ccc(F)cc1)C(=O)CCl [PCM-0102939, CN(Cc1ccc(F)cc1)C(=O)CCl]	–	0%	–	–	10%	-16.214	-16.214
O=C(CCl)N1CCc2ccccc21 [PCM-0102160, O=C(CCl)N1CCc2ccccc21]	0%	0%	-15.869	-15.869	–	–	–
CN(CC(=O)NC(C)(C)C)C(=O)CCl [PCM-0102259, CN(CC(=O)NC(C)(C)C)C(=O)CCl]	0%	0%	-16.044	-16.044	–	–	–
O=C(CCl)Nc1ccc([N+](=O)[O-])cc1Cl [PCM-0102392, O=C(CCl)Nc1ccc([N+](=O)[O-])cc1Cl]	21%	16%	-15.878	-15.878	–	–	–
O=C(CCl)NNC(=O)c1cc2c(s1)CCCC2 [PCM-0102142, O=C(CCl)NNC(=O)c1cc2c(s1)CCCC2]	100%	9%	-16.868	-16.868	–	–	–
Cc1nc(-c2cccc(NC(=O)CCl)c2)cs1 [PCM-0102262, Cc1nc(-c2cccc(NC(=O)CCl)c2)cs1]	63%	0%	-15.670	-15.670	–	–	–
CCN(C(=O)CCl)c1ccc(F)cc1 [PCM-0102900, CCN(C(=O)CCl)c1ccc(F)cc1]	–	29%	–	–	0%	-15.837	-15.837
CC(C)(C)N(Cc1cccc(F)c1)C(=O)CCl [PCM-0102833, CC(C)(C)N(Cc1cccc(F)c1)C(=O)CCl]	–	0%	–	–	0%	-16.964	-16.964
O=C(CCl)N1CCN(C2CCS(=O)(=O)C2)CC1 (stereo not shown) [PCM-0102405, O=C(CCl)N1CCN(C2CCS(=O)(=O)C2)CC1]	0%	0%	-15.476	-15.476	–	–	–
COc1ccc(NC(=O)CCl)cn1 [PCM-0102140, COc1ccc(NC(=O)CCl)cn1]	0%	0%	-13.166	-13.166	–	–	–
CC(C)N(C)C(=O)C1CCN(C(=O)CCl)CC1 [PCM-0102974, CC(C)N(C)C(=O)C1CCN(C(=O)CCl)CC1]	–	0%	–	–	0%	-15.247	-15.247

SMILES	OTUB2 % labeling (OTUB2)	NUDT7 % labeling (NUDT7)	ln(avg k) [1, 2]	ln(avg k) [1, 3]	OTUB2 % labeling (OTUB2; OTUB2 protein labeling)	ln(avg k) [1, 4]	ln(avg k) [1, 5]
O=C(CCl)Nc1ccccc1Cl [PCM-0102152, O=C(CCl)Nc1ccccc1Cl]	20%	0%	-16.303	-16.303	–	–	–
O=C(CCl)Nc1ccc(O)cc1 [PCM-0102163, O=C(CCl)Nc1ccc(O)cc1]	16%	0%	-15.989	-15.989	–	–	–
Cc1ccc(Cl)cc1NC(=O)CCl [PCM-0102354, Cc1ccc(Cl)cc1NC(=O)CCl]	0%	0%	-16.394	-16.394	–	–	–
CC(NC(=O)CCl)c1ccc(Cl)cc1 (stereo not shown) [PCM-0102334, CC(NC(=O)CCl)c1ccc(Cl)cc1]	25%	0%	-16.367	-16.367	–	–	–
O=C(CCl)N1CCOCC1C1CC1 (stereo not shown) [PCM-0102870, O=C(CCl)N1CCOCC1C1CC1]	–	17%	–	–	0%	-15.541	-15.541
N#CC1(NC(=O)CCl)CCC1 [PCM-0102854, N#CC1(NC(=O)CCl)CCC1]	–	9%	–	–	0%	-16.080	-16.080
CC(NC(=O)CCl)c1ccc(Cl)cc1Cl (stereo not shown) [PCM-0102212, CC(NC(=O)CCl)c1ccc(Cl)cc1Cl]	18%	54%	-16.295	-16.295	–	–	–
O=C(CCl)N1CCN(c2ccc([N+](=O)[O-])cc2)CC1 [PCM-0102094, O=C(CCl)N1CCN(c2ccc([N+](=O)[O-])cc2)CC1]	0%	27%	-15.009	-15.009	–	–	–
Cc1ccc(NC(=O)CCl)cc1I [PCM-0102577, Cc1ccc(NC(=O)CCl)cc1I]	80%	34%	-15.945	-15.945	–	–	–
O=C(CCl)NC1CS(=O)(=O)CC1Cl (stereo not shown) [PCM-0102291, O=C(CCl)NC1CS(=O)(=O)CC1Cl]	0%	12%	-16.221	-16.221	–	–	–
O=C(CCl)NCc1cccc(Cl)c1 [PCM-0102174, O=C(CCl)NCc1cccc(Cl)c1]	25%	0%	-16.752	-16.752	–	–	–
N#Cc1c(NC(=O)CCl)sc2c1CCCC2 [PCM-0102580, N#Cc1c(NC(=O)CCl)sc2c1CCCC2]	10%	72%	-16.105	-16.105	–	–	–
Cc1ccc(CNC(=O)CCl)cc1 [PCM-0102660, Cc1ccc(CNC(=O)CCl)cc1]	63%	0%	-16.571	-16.571	–	–	–
NC(=O)c1ccccc1NC(=O)CCl [PCM-0102758, NC(=O)c1ccccc1NC(=O)CCl]	–	0%	–	–	0%	-15.095	-15.095
O=C(CCl)N1CCCC1c1ccsc1 (stereo not shown) [PCM-0102693, O=C(CCl)N1CCCC1c1ccsc1]	0%	20%	-15.634	-15.634	–	–	–
CC(=O)c1cccc(N2Cc3ccccc3C2=NC(=O)CCl)c1 [PCM-0102283, CC(=O)c1cccc(N2Cc3ccccc3C2=NC(=O)CCl)c1]	0%	0%	-16.303	-16.303	–	–	–
CC(=O)N1CCc2cc(NC(=O)CCl)ccc21 [PCM-0102129, CC(=O)N1CCc2cc(NC(=O)CCl)ccc21]	31%	7%	-15.858	-15.858	–	–	–
